Data from paper PMC2765639 (PLoS Neglected Tropical Diseases, 2009).
Like-named read-outs stand apart in the source and are kept apart here.

Tests used:
L. major promastigotes = assay: L. major promastigote drug susceptibility assay (alamar blue, 384-well); assay type: cell-based, Leishmania major; conditions: for primary hit (≥50% inhibition of signal readout): single concentration 10 µM, LOPAC, UP-CMLD DP validation set or PMLSC library
Experimental: Promastigotes were grown in vented T75 tissue culture flasks and maintained at 28°C. Promastigote cultures were initiated at 10^5 parasites per mL and subcultured every 3–4 days. L. major promastigote counts were performed in duplicate using a hemocytometer and particle counter (Beckman Coulter, Fullerton, CA). For HTS assays, L. major promastigote cultures were harvested during exponential growth phase (∼2.0–3.0×10^7 parasites/mL) and were not maintained past passage 20.
The final test compound concentration was 10 µM with a constant DMSO concentration of 1% in each assay well.
The L. major promastigote drug susceptibility assay was performed in a final volume of 25 µL using our previously described 384-well microtiter plate format,[39]. For automated HTS procedures, L. major promastigotes (5,000 parasites/22 µL) in complete growth medium were seeded into each well of the microtiter plates using a MAPC2 bulk dispenser (Titertek, Huntsville, AL). Test and control compounds (3 µL) were added to individual wells using a Velocity 11 V-prep (Menlo Park, CA) liquid handling system, equipped with a 384-well dispensing head, followed by centrifugation at 50 g for 1 min. […] Assay plates were allowed to incubate for 44 h at 28°C in the presence of 5% CO2. Five µL of alamar blue reagent were added to each assay plate well and incubated for 4 h at 28°C with 5% CO2. Data were captured on a Molecular Devices SpectraMax M5 (excitation560; emission590). Individual assay plate Z-factors were derived from the vehicle and positive controls, and data from plates were used only if Z-factors were >0.5 [50].
The assays were performed in duplicate with a final 10-point concentration range spanning 0.01–5.00 µM.

A549 = assay: Mammalian cell line specificity assay (alamar blue); assay type: cell-based, human; conditions: Table S1; PMLSC library samples; read-out: EC50 Ave ± SD, A549
Experimental: Mammalian cells were cultured and maintained according to ATCC specifications (ATCC, Manassas, VA). Cell line drug susceptibility assays were performed in final volumes of 25 µL using our previously described 384-well microtiter plate format,[39]. […] Test and control compounds were added to individual wells as described above. Vehicle and positive controls were 1% DMSO and 10% DMSO, respectively (final well concentrations). Assay plates were incubated for 44–46 h at 37°C in the presence of 5% CO2 and growth inhibitory effects were determined as described above. Five µL of alamar blue reagent was added to each well and incubated for 2–4 h. Data were captured as described above.

[1] = Table S1, PMLSC library samples, 10-point 0.01–5.00 µM, read-out: EC50 Ave ± SD, Lm
[2] = Leishmania major, assay optimization, 384-well format, read-out: EC50, L. major promastigotes, known leishmanicidals

Compound	EC50 (L. major promastigotes; [1]) [nM]	EC50 (A549) [nM]	primary hit (≥50% inhibition of signal readout) (L. major promastigotes)	EC50 (L. major promastigotes; [2]) [nM]	EC50 (L. major promastigotes; assay optimization, 384-well format, read-out: EC50, L. major promastigotes, known leishmanicidals) [nM]
CN(C)C(=S)SSC(=S)N(C)C [CID 5455]	98 ± 12	750 ± 2	–	–	–
Nc1cccc2nc3ccccc3cc12 [CID 11352]	635 ± 26	4700 ± 311	–	–	–
Nc1nsc2ccccc12 [CID 89966]	392 ± 40	> 5000	–	–	–
O=[N+]([O-])c1cc(-c2nnc(C34CC5CC(CC(C5)C3)C4)o2)cc([N+](=O)[O-])c1 [CID 380438]	117 ± 22	> 5000	–	–	–
CN(C)C(=O)c1ccc[n+](CC(=O)Nc2ccc(Cl)cc2)c1 [CID 422270]	289 ± 44	2920 ± 320	–	–	–
Cc1nc2c(=O)n(C)c(=O)nc-2n(C)n1 [CID 460747]	202 ± 11	158 ± 18	–	–	–
COc1ccc2cc3[n+](cc2c1OC)CCc1cc2c(cc1-3)OCO2 [CID 629413]	379 ± 77	> 5000	–	–	–
COc1ccc2c3c(cccc13)NN=C2C [CID 644992]	255 ± 21	> 5000	–	–	–
Cc1nnc(Nc2ccccn2)c2ccccc12 [CID 645317]	723 ± 24	> 5000	–	–	–
[O-][N+]1=c2ccc(Nc3ccccc3)cc2=NC12CCCCC2 [CID 657546]	845 ± 136	> 5000	–	–	–
Cc1c(Cl)sn(-c2ccc(Cl)cc2)c1=O [CID 759209]	545 ± 118	2580 ± 185	–	–	–
COc1ccc(S(=O)(=O)Nc2ccc(O)c3ccccc23)cc1 [CID 871185]	287 ± 145	> 5000	–	–	–
O=C(Nc1ccc(Cl)cn1)c1ccc([N+](=O)[O-])o1 [CID 952234]	205 ± 21	4080 ± 352	–	–	–
O=c1c(Cl)nc2cc(Cl)ccc2n1CCNc1ncc(C(F)(F)F)cc1Cl [CID 1471937]	513 ± 52	4310 ± 540	–	–	–
COc1ccc(NC(=O)/C(Cl)=C(/Cl)[S+]([O-])Cc2ccccc2Cl)cn1 (stereo not shown) [CID 1475345]	242 ± 29	955 ± 25	–	–	–
Cc1cc(C(=O)CCl)c(C)n1Cc1ccco1 [CID 1537038]	784 ± 36	> 5000	–	–	–
CCOC(=O)c1c2c(n(C)c1C)C(=O)C(=O)c1ccc(Br)cc1-2 [CID 1736381]	87 ± 21	613 ± 109	–	–	–
CCOC(=O)C(=Cc1cc(=O)c(OC)co1)C(=O)OCC [CID 1811924]	166 ± 9	> 5000	–	–	–
COc1ccccc1-n1cnc2c(c1=O)c1nc3ccccc3nc1n2-c1ccc(C)c(C)c1 [CID 1987332]	85 ± 5	> 5000	–	–	–
Fc1cccc(-c2nnn3c2nc(Cl)c2ccccc23)c1 [CID 2137463]	499 ± 135	> 5000	–	–	–
O=S(=O)(CCSc1nc2ccccc2s1)c1nc2ccccc2s1 [CID 2194030]	718 ± 86	> 5000	–	–	–
CC(C)(C)c1ccc(-n2nc(C#N)c(Cl)cc2=O)cc1 [CID 2766929]	767 ± 160	3550 ± 582	–	–	–
CCCCCCCCCCCCCCCCn1cc[n+](C)c1 [CID 2846928]	35 ± 1	1640 ± 59	–	–	–
CCCOC(=O)CSC1=C(C#N)C(c2ccccc2Cl)CC(=O)N1 (stereo not shown) [CID 2855568]	122 ± 12	> 5000	–	–	–
CCc1ccc(NSc2ccccc2[N+](=O)[O-])cc1 [CID 2856077]	751 ± 110	> 5000	–	–	–
COCCCNCCCCOc1ccc(Br)cc1Cl [CID 2923184]	60 ± 0.1	> 5000	–	–	–

Compound	EC50 (L. major promastigotes; [1]) [nM]	EC50 (A549) [nM]	primary hit (≥50% inhibition of signal readout) (L. major promastigotes)	EC50 (L. major promastigotes; [2]) [nM]	EC50 (L. major promastigotes; assay optimization, 384-well format, read-out: EC50, L. major promastigotes, known leishmanicidals) [nM]
O=C1CC(c2ccccc2Br)c2cc3c(cc2N1)CCC3 (stereo not shown) [CID 2937831]	255 ± 48	> 5000	–	–	–
COc1cc(CNCc2cccs2)ccc1OCc1ccccc1 [CID 2964134]	164 ± 42	> 5000	–	–	–
COc1ccc(C2=NCC(CSc3nnc(-c4ccc5c(c4)OCO5)o3)S2)cc1 (stereo not shown) [CID 2999476]	187 ± 26	> 5000	–	–	–
O=[N+]([O-])c1ccc(NNC(=S)Nc2ccc(F)cc2)cc1 [CID 3127155]	452 ± 74	> 5000	–	–	–
CCCc1nc2c(=O)n(C)c(=O)nc-2n(C)n1 [CID 3164059]	218 ± 54	1060 ± 156	–	–	–
COC(=O)c1cc2ccsc2n1Cc1nc(-c2ccc(OC)cc2)oc1C [CID 3236501]	105 ± 10	> 5000	–	–	–
COC(=O)CNc1nc(-c2ccccc2F)nc2ccccc12 [CID 3237155]	743 ± 62	> 5000	–	–	–
O=C(NCC(c1cccnc1)N1CCN(c2ccc(F)cc2)CC1)Oc1ccccc1 (stereo not shown) [CID 3242548]	111 ± 10	> 5000	–	–	–
CCC(C)(c1nnnn1-c1c(C)cccc1C)N(N=O)c1ccccc1Cl (stereo not shown) [CID 3521510]	326 ± 40	> 5000	–	–	–
N#CC(c1ccc(Cl)cc1)c1ccc2c(C(F)(F)F)cc(C(F)(F)F)nc2n1 (stereo not shown) [CID 3564202]	565 ± 35	2110 ± 77	–	–	–
COC(=O)C1CN(C#N)N(c2ccc(Cl)cc2)C12c1ccccc1-c1ccccc12 (stereo not shown) [CID 3609942]	73 ± 13	2750 ± 73	–	–	–
CN(C)c1cc(NN=Cc2ccc(Cl)cc2)nc(N(C)C)n1 [CID 3769434]	504 ± 66	> 5000	–	–	–
Cc1ccccc1-n1ncc2c([N+](=O)[O-])cc([N+](=O)[O-])cc21 [CID 3932660]	61 ± 4	> 5000	–	–	–
O=C(c1cccnc1)N(c1cc2sc(=O)oc2c2ccccc12)S(=O)(=O)c1ccccc1 [CID 3980962]	192 ± 2	> 5000	–	–	–
Clc1ccccc1C(c1ccccc1)(c1ccccc1)n1ccnc1 [Clotrimazole, reference compound]	–	–	primary hits	–	–
COc1ccc2cc3[n+](cc2c1OC)CCc1cc2c(cc1-3)OCO2 [berberine, reference compound]	–	–	primary hits	–	–
CC(=O)N1CCN(c2ccc(OCC3COC(Cn4ccnc4)(c4ccc(Cl)cc4Cl)O3)cc2)CC1 (stereo not shown) [ketoconazole, reference compound]	–	–	primary hits	–	–
COc1c(C)c2c(c(O)c1C/C=C(\C)CCC(=O)O)C(=O)OC2 [mycophenolic acid, reference compound]	–	–	primary hits	–	–
O=C(Nc1ccc([N+](=O)[O-])cc1Cl)c1cc(Cl)ccc1O [niclosamide, reference compound]	–	–	primary hits	–	–
NC[C@@H]1O[C@H](O[C@H]2[C@@H](O)[C@H](O[C@@H]3[C@@H](O)[C@H](N)C[C@H](N)[C@H]3O[C@H]3O[C@H](CO)[C@@H](O)[C@H](O)[C@H]3N)O[C@@H]2CO)[C@H](N)[C@@H](O)[C@@H]1O [paromomycin, reference compound]	–	–	–	19700 ± 600	–
N=C(N)c1ccc(OCCCCCOc2ccc(C(=N)N)cc2)cc1 [pentamidine, reference compound]	–	–	–	360 ± 20	–
CCN(CC)CCCC(C)Nc1c2ccc(Cl)cc2nc2ccc(OC)cc12 (stereo not shown) [quinacrine, reference compound]	–	–	primary hits	–	–
O=C(O)[C@@H]1[O][Sb](=[O])([O][Sb]2(=[O])[O][C@H]([C@H](O)CO)[C@H](O)[C@H](C(=O)O)[O]2)[O][C@H]([C@H](O)CO)[C@@H]1O.[Na+].[Na+].[Na+] (stereo partly shown) [sodium stibogluconate, reference compound]	–	–	–	–	> 100000
CC/C(=C(\c1ccccc1)c1ccc(OCCN(C)C)cc1)c1ccccc1 [tamoxifen, reference compound]	–	–	primary hits	–	–
ivermectin [reference compound]	–	–	primary hits	–	–
